Experimental data from US9127040B2, “Regulation of sodium channels by PLUNC proteins” (The University of North Carolina at Chapel Hill, priority 2011, dated 2015).
Ends that are not written are not given here.

Tests used:
γENaC = target: T1, γENaC (Homo sapiens, UniProt P51170); test: Biotinylated peptide pull-down of ENaC subunits from HEK293T cells; type: binding; conditions: subunits individually expressed
T1 construct: expressed in transfected cells; host or cells: HEK293T cells (lysate)
Description: HEK293T cells were transfected with double-tagged human ENaC subunits with HA and V5 epitopes at the N- and C-termini, respectively, in combination with wild-type untagged subunit cDNA. When all three ENaC subunits were expressed, 0.5 μg of each subunit were transfected per well. When expressed individually, 0.75 μg of the subunit were transfected per well. The transfected cells were lysed 24 h later using NP-40 buffer with 1× complete EDTA-free protease inhibitor (Roche, Basel, Switzerland). The lysate was centrifuged at 16,300×g for 15 minutes at 4° C. and the supernatant collected. Protein concentration was determined using the BCA assay and 500 μg of protein plus 0.25 mg peptide and 100 μL of neutravidin were added to a spin column and rotated end-over-end at 4° C. for 24 h (all ThermoFisher Scientific, Rockford, Ill., USA). Flow-through was collected by centrifugation at 1000×g for 30 s. […] The membrane was probed using 1:1000 anti-V5 antibody (Invitrogen, Carlsbad, Calif., USA) overnight at 4° C. in 3% fish gelatin in TBS-T. The blot was then incubated for 1 h at room temperature with an ECL sheep anti-mouse IgG secondary antibody and detected by ECL reagent (ThermoFisher Scientific, Waltham, Mass., USA) or by incubation with a goat anti-mouse IRDye secondary antibody and analyzed by an Odyssey infrared imaging system (LI-COR Biosciences, Lincoln, Nebr., USA).

βENaC-eGFP = target: T2, βENaC-eGFP (Homo sapiens, UniProt P51168); test: Confocal imaging of βENaC-eGFP internalization in HEK cells; type: cell-based; conditions: 1 h after 100 μM S18
T2 construct: expressed in transfected cells; host or cells: HEK cells
T2 sequence (P51168 whole entry): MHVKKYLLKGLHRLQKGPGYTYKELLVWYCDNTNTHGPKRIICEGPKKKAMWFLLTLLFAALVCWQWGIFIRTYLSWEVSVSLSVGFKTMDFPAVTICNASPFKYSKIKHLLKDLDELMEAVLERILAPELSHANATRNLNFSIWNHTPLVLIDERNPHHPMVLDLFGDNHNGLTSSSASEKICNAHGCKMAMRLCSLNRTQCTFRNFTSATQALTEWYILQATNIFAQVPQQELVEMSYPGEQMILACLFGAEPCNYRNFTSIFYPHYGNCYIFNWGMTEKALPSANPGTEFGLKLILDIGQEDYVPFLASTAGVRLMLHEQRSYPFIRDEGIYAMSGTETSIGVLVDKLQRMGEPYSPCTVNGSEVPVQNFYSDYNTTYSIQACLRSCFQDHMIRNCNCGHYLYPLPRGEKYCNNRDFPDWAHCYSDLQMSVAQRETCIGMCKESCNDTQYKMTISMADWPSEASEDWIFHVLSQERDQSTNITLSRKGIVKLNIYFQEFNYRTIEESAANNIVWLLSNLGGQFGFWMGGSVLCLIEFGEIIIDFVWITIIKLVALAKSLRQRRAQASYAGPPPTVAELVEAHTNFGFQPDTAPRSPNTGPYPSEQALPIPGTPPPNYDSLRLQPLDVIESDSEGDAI
T2 sequence (P37088 whole entry partner): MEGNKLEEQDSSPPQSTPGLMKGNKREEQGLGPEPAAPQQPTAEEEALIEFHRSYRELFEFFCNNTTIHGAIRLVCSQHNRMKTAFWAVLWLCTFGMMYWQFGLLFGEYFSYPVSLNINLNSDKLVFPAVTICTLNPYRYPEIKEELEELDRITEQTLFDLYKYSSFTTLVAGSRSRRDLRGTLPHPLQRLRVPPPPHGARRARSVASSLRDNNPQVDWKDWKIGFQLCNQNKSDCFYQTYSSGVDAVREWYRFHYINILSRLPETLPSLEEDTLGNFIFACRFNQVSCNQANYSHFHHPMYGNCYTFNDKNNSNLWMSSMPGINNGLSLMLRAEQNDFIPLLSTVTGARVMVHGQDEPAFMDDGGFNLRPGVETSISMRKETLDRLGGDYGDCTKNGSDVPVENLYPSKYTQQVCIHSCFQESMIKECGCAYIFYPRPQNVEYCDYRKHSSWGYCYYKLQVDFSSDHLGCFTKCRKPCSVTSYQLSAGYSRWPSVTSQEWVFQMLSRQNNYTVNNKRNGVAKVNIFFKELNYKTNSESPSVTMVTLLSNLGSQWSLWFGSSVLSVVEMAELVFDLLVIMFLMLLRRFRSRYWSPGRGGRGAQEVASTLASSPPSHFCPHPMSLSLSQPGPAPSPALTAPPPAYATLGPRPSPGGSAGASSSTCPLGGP
T2 sequence (P51170 whole entry partner): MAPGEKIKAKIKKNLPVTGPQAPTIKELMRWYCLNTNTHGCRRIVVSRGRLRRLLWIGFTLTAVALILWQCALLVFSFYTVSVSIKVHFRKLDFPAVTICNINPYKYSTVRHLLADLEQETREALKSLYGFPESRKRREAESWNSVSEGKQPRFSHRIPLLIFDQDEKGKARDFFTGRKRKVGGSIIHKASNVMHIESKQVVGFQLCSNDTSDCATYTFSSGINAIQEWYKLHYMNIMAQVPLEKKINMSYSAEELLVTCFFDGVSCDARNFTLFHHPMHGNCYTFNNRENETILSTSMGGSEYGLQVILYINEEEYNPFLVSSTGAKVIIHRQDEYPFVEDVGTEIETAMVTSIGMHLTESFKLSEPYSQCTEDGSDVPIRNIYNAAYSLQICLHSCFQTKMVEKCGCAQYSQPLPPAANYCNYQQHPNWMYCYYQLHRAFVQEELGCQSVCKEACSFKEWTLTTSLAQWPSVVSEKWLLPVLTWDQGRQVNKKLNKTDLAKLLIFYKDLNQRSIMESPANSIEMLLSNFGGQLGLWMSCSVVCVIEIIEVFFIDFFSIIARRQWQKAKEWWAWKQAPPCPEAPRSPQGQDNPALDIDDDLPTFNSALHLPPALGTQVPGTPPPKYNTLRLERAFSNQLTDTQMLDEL
Source text: (§1) Ai, cartoon of αENaC-eGFP and βENaC-mCherry under basal conditions (γENaC not shown). Aii We hypothesize that S18 binding to the extracellular loop of βENaC (1) induces a conformational change in ENaC which is reflected as altered intracellular FRET (2). This change may facilitate NEDD4-2-induced ubiquitination (3), leading to internalization of αβγENaC (4). […] In contrast, exposure to aprotinin had no effect. All n=8-10. C, Typical confocal images of HEK cells expressing αγENaC and βENaC-eGFP before and 1 h after 100 μM S18. Cell outlines are traced in white.
(§2) Since ENaC is regulated by NEDD4-2 binding to its C-termini, which leads to ubiquitination of its N-termini and internalization, we propose that S18 causes a conformational change in ENaC, leading to increased ubiquitination followed by internalization (FIG. 21A). As a first step towards understanding the mechanism of action of SPLUNC1, we performed FRET on fluorescently tagged ENaCs. […] Furthermore, βENaC-eGFP internalized upon S18 binding (FIG. 21C), consistent with our surface biotinylation data from oocytes.

[1] = target: T3, αENaC-eGFP and βENaC-mCherry (Homo sapiens, UniProt P37088+P51168); test: Acceptor-photobleaching FRET between fluorescently tagged ENaC subunits; type: cell-based; conditions: one hour of exposure
T3 construct: expressed in transfected cells
T3 sequence (P37088 whole entry): as the sequence (P37088 whole entry partner) above
T3 sequence (P51168 whole entry): as the sequence (P51168 whole entry) above
T3 sequence (P51170 whole entry partner): as the sequence (P51170 whole entry partner) above
Source text: as §1, §2

neutrophil elastase = target: T4, neutrophil elastase (Homo sapiens, UniProt P08246); test: Cleavage of SPLUNC1 by neutrophil elastase at pH 6 vs 7.4; conditions: 10 μM SPLUNC1, 100 nM neutrophil elastase
T4 sequence (P08246 30-267): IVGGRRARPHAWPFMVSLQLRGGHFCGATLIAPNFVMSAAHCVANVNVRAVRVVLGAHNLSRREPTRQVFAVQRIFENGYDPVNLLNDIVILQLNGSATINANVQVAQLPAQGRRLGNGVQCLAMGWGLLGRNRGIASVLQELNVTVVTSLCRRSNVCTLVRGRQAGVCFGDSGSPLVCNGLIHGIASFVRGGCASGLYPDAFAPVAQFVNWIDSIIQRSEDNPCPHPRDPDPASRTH
Description: A, Neutrophil elastase activity is moderately greater at pH 6 than at pH 7.4. B, Coomassie-stained gel showing 10 μM SPLUNC1 exposed to 100 nM Neutrophil elastase at pH 6 and 7.4. The reaction was stopped at timed intervals.
Based on SPLUNC1 but not S18's pH-sensitivity (FIGS. 25B and 25C), we hypothesized that SPLUNC1 undergoes a conformational change, and binds to itself at pH 6. To test this, we exposed SPLUNC1 to neutrophil elastase at pH 6 vs. 7.4 (FIG. 26). […] This is consistent with our hypothesis that less SPLUNC1 is exposed at low pH.

T1 sequence (P51170 whole entry): as the sequence (P51170 whole entry partner) above

Row | Molecule | binding to γENaC (pull-down) (γENaC) | βENaC-eGFP internalization (βENaC-eGFP) | FRET between αENaC-eGFP and βENaC-mCherry [1] | cleavage by neutrophil elastase at pH 6 (neutrophil elastase)
1 | GGLPVPLDQTLPLNVNPA [S18] | without any detectable binding | internalized | significantly diminished | 
2 | SPLUNC1: human SPLUNC1 (SEQ ID NO:1), 256 amino acid secreted PLUNC family protein; rSPLUNC1 is the purified V5/6His-tagged recombinant form (protein, listed as Homo sapiens, V5/6His tag in recombinant form, rSPLUNC1 is the purified V5/6His-tagged recombinant form) MFQTGGLIVFYGLLAQTMAQFGGLPVPLDQTLPLNVNPALPLSPTGLAGSLTNALSNGLLSGGLLGILENLPLLDILKPGGGTSGGLLGGLLGKVTSVIPGLNNIIDIKVTDPQLLELGLVQSPDGHRLYVTIPLGIKLQVNTPLVGASLLRLAVKLDITAEILAVRDKQERIHLVLGDCTHSPGSLQISLLDGLGPLPIQGLLDSLTGILNKVLPELVQGNVCPLVNEVLRGLDITLVHDIVNMLIHGLQFVIKV |  |  |  | resistant to cleavage
